The target in this experiment is Chloride intracellular channel-1 (CLIC1) (Homo sapiens, UniProt O00299). The experiment in a line: microscale thermophoresis (also CLIC1 current block by patch clamp in GBM3 GSCs). The format is binding. More on the design: recombinant CLIC1, NHS dye-labelled. In general terms: Microscale thermophoresis detects binding through changes in fluorescence in a small temperature gradient.

This note sets out measurements from PMC8822754, “Chloride intracellular channel 1 activity is not required for glioblastoma development but its inhibition dictates glioma stem cell responsivity to novel biguanide derivatives” (Journal of Experimental & Clinical Cancer Research : CR, 2022).

As for `COc1ccc(N2C(N)=NC(N)=NC2(C)C)cc1` [Q54], the Kd (usually the free concentration of one partner at which half of the binding sites on the other are occupied at equilibrium, for simple one-to-one binding) is 1900 ± 500 µM. Regarding `COc1ccc(/N=C(\N)N=C(N)N)cc1` [Q48], the dissociation constant Kd was 15.6 ± 1.9 µM.
